Experimental data taken from patent EP3782997A1, “FUSED PYRIMIDINE COMPOUNDS AND PHARMACEUTICAL COMPOSITIONS THEREOF FOR THE TREATMENT OF FIBROTIC DISEASES” (Galapagos N.V., priority 2019, dated 2021).

The molecules below were run against hENPP2 (Homo sapiens, UniProt Q13822) (assay: Human ENPP2 (hENPP2) biochemical assay using LPC as substrate). Settings: 150 µM LPC (palmitoyl 16:0), 37°C for 30 min.
Method: The principle of the assay conswasts in quantifying the released choline with an enzymatic method using choline oxidase and peroxidase. Choline oxydation by choline oxydase releases betaine and peroxide. The latter was quantified in presence of HRP that converts the peroxide detection agent TOOS (CAS# 82692-93-1) and 4-aminoantipyrine into quinoneimine dye. The appearance of quinoneimine dye was measured spectrophotometrically at 555 nm and was proportional to the amount of choline released by ENPP2. Inhibition of ENPP2 results in a decrease of the signal.
Compound IC50 values were determined in a hENPP2 (UniProtKB/SwwassProt Sequence ref Q13822) biochemical assay using LPC as substrate.
5 µL of a dilution series of compound, starting from 50 µM highest concentration, 1/3 dilution, was added to the wells. hENPP2 was used at a final concentration of 1 µg/mL or 3 µg/mL (it will be appreciated by the skilled person that the potency read out was independent of the enzyme concentration). The enzyme was diluted in 50 mM Trwas-HCl pH 8.5, 500 mM NaCl, 5 mM KCl, 10 mM CaCl2, 0.1% fatty acid free BSA in a total volume of 10 µL. The reaction was started by the addition of 10 µL of 150 µM LPC (palmitoyl 16:0; Avanti Polar Lipids, Inc., Cat# 855675) diluted in the same buffer as described above and the mixture was incubated at 37°C for 30 min. The reaction was terminated and choline quantified by the addition of a 25 µL of a mixture containing 0.6 U/mL of choline oxidase, 0.6 U/mL of peroxydase, 1.8 mM TOOS, 1.2 mM amino-antipyrine, 20 mM EGTA (stop-developer solution) diluted in the buffer described above. […] was read on an Envision plate reader (PerkinElmer, Inc.) after an incubation of 30 min at room temperature (excitation 555 nm).

Cc1cc(C)cc(Nc2ncc3c(n2)CN(C2CN(C(=O)c4ccc5[nH]nnc5c4)CC2(F)F)C3)c1 (centres unmarked) [Cpd 101, 1H-benzotriazol-5-yl-[4-[2-(3,5-dimethylanilino)-5,7-dihydropyrrolo[3,4-d]pyrimidin-6-yl]-3,3-difluoro-pyrrolidin-1-yl]methanone] and Cc1cc(C)cc(Nc2ncc3c(n2)CCN(C2CN(C(=O)c4ccc5[nH]nnc5c4)C2)C3)c1 [compound 2, 1H-benzotriazol-5-yl-[3-[2-(3,5-dimethylanilino)-7,8-dihydro-5H-pyrido[4,3-d]pyrimidin-6-yl]azetidin-1-yl]methanone] fall in the same range of IC50: 100 to 500 nM for the first, 100 to 500 nM for the second.

COC(=O)[C@@H]1C[C@H](N2Cc3cnc(Nc4cc(C)cc(C)c4)nc3C2)CCN1C(=O)c1ccc2[nH]nnc2c1 [Cpd 104, methyl (2S,4R)-1-(1H-benzotriazole-5-carbonyl)-4-[2-(3,5-dimethylanilino)-5,7-dihydropyrrolo[3,4-d]pyrimidin-6-yl]pipe ridine-2-carboxylate] and COc1cc(C)cc(Nc2ncc3c(n2)CN([C@@H]2CCN(C(=O)c4ccc5[nH]nnc5c4)[C@H](C)C2)C3)c1 [Cpd 125, 1H-benzotriazol-5-yl-[(2R,4R)-4-[2-(3-methoxy-5-methyl-anilino)-5,7-dihydropyrrolo[3,4-d]pyrimidin-6-yl]-2-methyl-1-piperidyl]methanone] fall in the same range of IC50: 0.01 to 100 nM for the first, 0.01 to 100 nM for the second.

First: Cc1cc(C)cc(Nc2ncc3c(n2)CN(C2CCN(C(=O)c4ccc5[nH]cnc5c4)CC2)C3)c1 [Cpd 108, 1H-benzimidazol-5-yl-[4-[2-(3,5-dimethylanilino)-5,7-dihydropyrrolo[3,4-d]pyrimidin-6-yl]-1-piperidyl]methanone]
Second: Cc1cc(C)cc(Nc2ncc3c(n2)CN(C2CCN(C(=O)c4ccc5[nH]nnc5c4)CC2)C3)c1 [compound 10, 1H-benzotriazol-5-yl-[4-[2-(3,5-dimethylanilino)-5,7-dihydropyrrolo[3,4-d]pyrimidin-6-yl]-1-piperidyl]methanone]
The IC50 of the first is higher: 500 to 1000 nM for the first, 0.01 to 100 nM for the second.

First: Cc1cc(C)cc(Nc2ncc3c(n2)CN(C2CCN(C(=O)c4cc5nn[nH]c5cc4F)C(C)(C)C2)C3)c1 (centres unmarked) [Cpd 117, [4-[2-(3,5-dimethylanilino)-5,7-dihydropyrrolo[3,4-d]pyrimidin-6-yl]-2,2-dimethyl-1-piperidyl]-(6-fluoro-1H-benzotriazol-5-yl)methanone]
Second: Cc1cc(C)cc(Nc2ncc3c(n2)CCN(C2CCN(C(=O)c4ccc5[nH]nnc5c4)C2)C3)c1 (centres unmarked) [compound 5, 1H-benzotriazol-5-yl-[3-[2-(3,5-dimethylanilino)-7,8-dihydro-5H-pyrido[4,3-d]pyrimidin-6-yl]pyrrolidin-1-yl]methanone]
The IC50 of the first is lower: 0.01 to 100 nM for the first, 100 to 500 nM for the second.

First: Cc1cc(C)cc(Nc2ncc3c(n2)CN(C2CCN(C(=O)c4ccc5oc(=O)[nH]c5c4)CC2)C3)c1 [Cpd 118, 5-[4-[2-(3,5-dimethylanilino)-5,7-dihydropyrrolo[3,4-d]pyrimidin-6-yl]piperidine-1-carbonyl]-3H-1,3-benzoxazol-2-one]
Second: Cc1cc(C)cc(Nc2ncc3c(n2)CN(C2CCN(C(=O)c4ccc5[nH]c(=O)oc5c4)CC2)C3)c1 [compound 11, 6-[4-[2-(3,5-dimethylanilino)-5,7-dihydropyrrolo[3,4-d]pyrimidin-6-yl]piperidine-1-carbonyl]-3H-1,3-benzoxazol-2-one]
The IC50 of the first is higher: > 1000 nM for the first, 0.01 to 100 nM for the second.

Cc1cc(C)cc(Nc2ncc3c(n2)CN([C@H]2CCN(C(=O)c4ccc(S(N)(=O)=O)cc4)[C@@H](C)C2)C3)c1 [Cpd 124, 4-[(2S,4S)-4-[2-(3,5-dimethylanilino)-5,7-dihydropyrrolo[3,4-d]pyrimidin-6-yl]-2-methyl-piperidine-1-carbonyl]benzenesulfonamide] and Cc1cc(C)cc(Nc2ncc3c(n2)CN([C@H]2CCN(C(=O)c4ccc(S(=O)(=O)NC(=O)C(C)C)cc4)[C@@H](C)C2)C3)c1 [Cpd 131, N-[4-[(2S,4S)-4-[2-(3,5-dimethylanilino)-5,7-dihydropyrrolo[3,4-d]pyrimidin-6-yl]-2-methyl-piperidine-1-carbonyl]phenyl]sulfonyl-2-methyl-propanamide] cannot be ordered by IC50: > 1000 nM for the first, > 1000 nM for the second.

Cc1cc(C)cc(Nc2ncc3c(n2)CN(C2(C)CCN(C(=O)c4ccc5[nH]nnc5c4)CC2)C3)c1 [Cpd 130, 1H-benzotriazol-5-yl-[4-[2-(3,5-dimethylanilino)-5,7-dihydropyrrolo[3,4-d]pyrimidin-6-yl]-4-methyl-1-piperidyl]methanone] and Cc1cc(C)cc(Nc2ncc3c(n2)CCN(C2(C)CCN(C(=O)c4ccc5[nH]nnc5c4)CC2)C3)c1 [Cpd 158, 1H-benzotriazol-5-yl-[4-[2-(3,5-dimethylanilino)-7,8-dihydro-5H-pyrido[4,3-d]pyrimidin-6-yl]-4-methyl-1-piperidyl]methanone] fall in the same range of IC50: 0.01 to 100 nM for the first, 0.01 to 100 nM for the second.

Cc1cc(C)cc(Nc2ncc3c(n2)CN([C@H]2CCN(C(=O)c4ccc(C(=O)O)cc4)[C@@H](C)C2)C3)c1 [Cpd 132, 4-[(2S,4S)-4-[2-(3,5-dimethylanilino)-5,7-dihydropyrrolo[3,4-d]pyrimidin-6-yl]-2-methyl-piperidine-1-carbonyl]benzoic acid] and Cc1cc(C)cc(Nc2ncc3c(n2)CN([C@@H]2CCN(C(=O)c4cccc(C(=O)O)c4)[C@H](C)C2)C3)c1 [Cpd 146, 3-[(2R,4R)-4-[2-(3,5-dimethylanilino)-5,7-dihydropyrrolo[3,4-d]pyrimidin-6-yl]-2-methyl-piperidine-1-carbonyl]benzoic acid] cannot be ordered by IC50: > 1000 nM for the first, > 1000 nM for the second.

Cc1cc(C)cc(Nc2ncc3c(n2)CN([C@H]2CCN(C(=O)c4ccc(C(=O)NS(C)(=O)=O)cc4)[C@@H](C)C2)C3)c1 [Cpd 133, 4-[(2S,4S)-4-[2-(3,5-dimethylanilino)-5,7-dihydropyrrolo[3,4-d]pyrimidin-6-yl]-2-methyl-piperidine-1-carbonyl]-N-methylsulfonylbenzamide] and Cc1cc(C)cc(Nc2ncc3c(n2)CN([C@@H]2CCN(C(=O)c4ccc(-c5nnn[nH]5)cc4)[C@H](C)C2)C3)c1 [Cpd 153, [(2R,4R)-4-[2-(3,5-dimethylanilino)-5,7-dihydropyrrolo[3,4-d]pyrimidin-6-yl]-2-methyl-1-piperidyl]-[4-(1H-tetrazol-5-yl)phenyl]methanone] cannot be ordered by IC50: > 1000 nM for the first, > 1000 nM for the second.

Cc1cc(C)cc(Nc2ncc3c(n2)CCN(C2CCN(C(=O)c4ccc5[nH]nnc5c4)[C@@H](C)C2)CC3)c1 (stereo partly drawn) [Cpd 142, 1H-benzotriazol-5-yl-[(2S)-4-[2-(3,5-dimethylanilino)-5,6,8,9-tetrahydropyrimido[4,5-d]azepin-7-yl]-2-methyl-1-piperidyl]methanone] and Cc1cc(C)cc(Nc2ncc3c(n2)CCN(C2CCN(C(=O)c4ccc5[nH]c(=O)oc5c4)CC2)C3)c1 [compound 7, 6-[4-[2-(3,5-dimethylanilino)-7,8-dihydro-5H-pyrido[4,3-d]pyrimidin-6-yl]piperidine-1-carbonyl]-3H-1,3-benzoxazol-2-one] fall in the same range of IC50: 100 to 500 nM for the first, 100 to 500 nM for the second.

C[C@@H]1C[C@H](N2Cc3cnc(Nc4ccc(C#N)cc4)nc3C2)CCN1C(=O)c1ccc2[nH]nnc2c1 [Cpd 160, 4-[[6-[(2R,4R)-1-(1H-benzotriazole-5-carbonyl)-2-methyl-4-piperidyl]-5,7-dihydropyrrolo[3,4-d]pyrimidin-2-yl]amino]benzonitrile] and O=C(c1ccc2[nH]nnc2c1)N1CC(N2Cc3cnc(Nc4cc(C(F)(F)F)cc(C(F)(F)F)c4)nc3C2)C1 [compound 9, 1H-benzotriazol-5-yl-[3-[2-[3,5-bis(trifluoromethyl)anilino]-5,7-dihydropyrrolo[3,4-d]pyrimidin-6-yl]azetidin-1-yl]methanone] fall in the same range of IC50: 0.01 to 100 nM for the first, 0.01 to 100 nM for the second.

Cc1cc(C)cc(Nc2ncc3c(n2)CCN(C2CCN(C(=O)c4ccc5[nH]c(=O)oc5c4)C2)C3)c1 (centres unmarked) [compound 4, 6-[3-[2-(3,5-dimethylanilino)-7,8-dihydro-5H-pyrido[4,3-d]pyrimidin-6-yl]pyrrolidine-1-carbonyl]-3H-1,3-benzoxazol-2-one] and Cc1cc(C)cc(Nc2ncc3c(n2)CN(C2CCN(C(=O)c4ccc5[nH]c(=O)oc5c4)C2)C3)c1 (centres unmarked) [compound 12, 6-[3-[2-(3,5-dimethylanilino)-5,7-dihydropyrrolo[3,4-d]pyrimidin-6-yl]pyrrolidine-1-carbonyl]-3H-1,3-benzoxazol-2-one] fall in the same range of IC50: 0.01 to 100 nM for the first, 0.01 to 100 nM for the second.

O=C(c1ccc2[nH]c(=O)oc2c1)N1CC(N2Cc3cnc(Nc4cc(C(F)(F)F)cc(C(F)(F)F)c4)nc3C2)C1 [compound 6, 6-[3-[2-[3,5-bis(trifluoromethyl)anilino]-5,7-dihydropyrrolo[3,4-d]pyrimidin-6-yl]azetidine-1-carbonyl]-3H-1,3-benzoxazol-2-one] and O=C(c1ccc2[nH]c(=O)oc2c1)N1CC(N2CCc3nc(Nc4cc(C(F)(F)F)cc(C(F)(F)F)c4)ncc3C2)C1 [compound 8, 6-[3-[2-[3,5-bis(trifluoromethyl)anilino]-7,8-dihydro-5H-pyrido[4,3-d]pyrimidin-6-yl]azetidine-1-carbonyl]-3H-1,3-benzoxazol-2-one] fall in the same range of IC50: 0.01 to 100 nM for the first, 0.01 to 100 nM for the second.
